Here are results for two molecules from patent US20060241150A1, “P38 kinase inhibitor compositions and methods of using the same” (priority 2003, published 2006).

Entries after “also recorded” stand apart in the source; their conditions may differ.

The term inhibition denotes the share of the control response that was lost under treatment.

The test system of assay [1] is HIV-1 induced apoptosis in human PBMCs. As to the kind of experiment: Annexin V-FITC FACS analysis of HIV-1 induced apoptosis in infected PBMCs. Particulars: for inhibition of apoptosis induced by 4 subtype divergent primary HIV viral isolates: FIG. 1C. The assay is classed as cell-based. Here is the method:
(§1) The human CD4^+ T cell line Jurkat, or the monocyte line U937 were obtained from the American Type Culture Collection (Rockville, Md.). Cells were passaged in RPMI1640 (Gibco-BRL, MD) supplemented with 10% FBS, 2 mM L-glutamine, 100 U/ml penicillin G, and 100 μg/ml streptomycin maintained at 37° C. and 5% CO2 and verified routinely to certify that they were Mycoplasma negative. Human PBMCs were isolated from healthy HIV-seronegative donors by Ficoll-Hypaque separation (Pharmacia Biotech AB, Sweden). Peripheral blood mononuclear cells (PBMCs) from healthy adults were incubated for 2 days with 5 μg/ml phytohemagglutinin (PHA, Sigma) before the addition of 5 U/ml of human recombinant interleukin-2 (hrIL-2; R&D system, MN).
Viruses that were assayed in these studies included the pNL 4-3 (dual tropic) virus, which uses both CCR5 & CxCR4 receptors, and 89.6 (dual tropic), which uses CCR5 & CxCR4 receptors. In addition clade specific viruses were studied and these were obtained through the NIH AIDS research and Reference Reagent Program. For infection studies human PBMCs were isolated from normal, sero-negative donors, and infection was accomplished by incubating target cells with HIV-1 virus at a concentration of 100 TCID50/10^6 cells/ml. Culture supernatant was collected at 6, 12 and 24 hr intervals and assayed for virus production by measuring the p24 antigen released into the medium by ELISA (Coulter, FL) according to the manufacturer's instructions. Some data are presented as mean±SEM. For data presented as percent change, the base line (medium alone) value was subtracted from the value of each experimental condition as described in the legend.
(§2) FACS analysis was performed to identify cells undergoing apoptosis. Equal numbers of cells from each test group were collected for analysis. Apoptosis in experimental cells was analyzed by using an Annexin-V assay kit from PharMingen (CA). Data was analyzed by the CELL Quest program (Beckton-Dickinson, CA). Caspase 3 activity was determined using Caspase-3/CPP32 colorimetric protease assay kit according to the manufacturer's instructions (MBL, Nagoya, Japan).
(In flow cytometry, cells or beads pass a laser one at a time.)

A further assay concerns Caspase 3. Nature of the assay: Caspase-3/CPP32 colorimetric protease assay on lysates of HIV-1 infected cells. Type of assay: cell-based, human. As to conditions: 89.6 or pNL4-3 virus; FIG. 1D. As to the method: as §2
Assay [2] concerns FasL expression in HIV-infected Jurkat T cells. Nature of the assay: FasL expression by flow cytometry in HIV-infected Jurkat T cells. Type of assay: cell-based, human. Particulars: 1 μm, 89.6 or pNL4-3. As to the method: as §1
(§3) Viruses that were assayed in these studies included the pNL 4-3 (dual tropic) virus, which uses both CCR5 & CxCR4 receptors, and 89.6 (dual tropic), which uses CCR5 & CxCR4 receptors. In addition clade specific viruses were studied and these were obtained through the NIH AIDS research and Reference Reagent Program. […]
(§4) Single cell suspensions were washed in PBS (pH 7.2) containing 0.2% bovine serum albumin and 0.1% NaN3. […] Data were analyzed using the CELL Quest program (Beckton-Dickinson, CA).

Assay [3] concerns FasL expression in HIV-infected PBMCs. Nature of the assay: FasL expression by flow cytometry in HIV-infected PBMCs. Type of assay: cell-based, human. Particulars: 1 μm; PBMC's; 89.6 or pNL4-3. As to the method: as §1, §3, §4
The subject of assay [4] is Nef driven FasL expression in Jurkat cells. As to the kind of experiment: FasL expression in Jurkat cells transfected with pNef. The assay is classed as cell-based, human. An excerpt: (§5) Constructs containing Nef were generated using overlap extension PCR at the indicated codons and were cloned into the pCDNA3.1 vector (InVitrogen, CA). The HIV-1 proviral infectious vector pNL4-3 was obtained through the NIH AIDS research and Reference Reagent Program. This vector has been rendered Nef deficient by 5′ frame shift mutation in the Nef region (He, J., Choe, et al, J. Virol. 69, 6705-6711 (1995) which is incorporated herein by reference).
(§6) Single cell suspensions were washed in PBS (pH 7.2) containing 0.2% bovine serum albumin and 0.1% NaN3. Cells were incubated with PE labeled […]-CD95L antibody (NOK-1, 0.05 μg/ml, BD Pharmingen, CA, USA) antibody for 60 minutes at 4° C. Cells were washed with PBS and fixed with 2% paraformaldehyde and resuspended in 200 μl PBS and subjected to FACS (FL2 histogram) analysis (Beckton Dickinson, CA). Data were analyzed using the CELL Quest program (Beckton-Dickinson, CA).

The test system of assay [5] is Nef mediated FasL expression in human PBMCs. Nature of the assay: p24gag / FasL flow cytometry in PBMCs infected with Nef positive pNL4-3 virus. The assay is classed as cell-based. Particulars: 1 μM; PBMCs infected with pNL4-3 Wt (Nef positive) virus.
Description: as §5
To prepare infectious viral stocks, HIV-1 proviral DNA (pNL4-3 Wt and pNL4-3 and Nef delta) were generated as described Muthumani, K., et al, Journal of Biol. Chem. 277: 37820-37831 (2002). The viral titers were determined by infection of the human T cell line Jurkat using serially diluted virus supernatant. […] Viral stocks were normalized for virus content by infection and titration and stocks were stored in the presence of 10% FBS in aliquots at −80° C. until their use.
as §6

The test system of assay [6] is apoptosis of CD8+ T cells co-cultured with HIV infected macrophages. Nature of the assay: Bystander CD8+ T cell apoptosis induced by HIV infected macrophages (Annexin V). Particulars: 1 μM; latex bead stimulated 89.6 infected macrophages with autologous CD8+ T cells. The assay is classed as cell-based, human. As to the method: Monocyte-derived macrophages (MDM) were prepared from PBMCs obtained from healthy donors and incubated at 37° C. in polystyrene T-75 flasks for 4-10 hrs at 37° C. After the incubation the cells were washed with RPMI 1640 for 3 times to remove non-adherent cells. The adherent monocytes were detached with ethylene diamine tetra-acetic acid (EDTA) and the purity of the monocyte cell populations thus isolated was >98% as determined by FACS staining for CD14^+. The CD14^+ positive cells were incubated in 6-well plates at a density of 1×10^6 cells/ml in RPMI medium supplemented with 10% human serum.
Human PBMC's were isolated from healthy HIV-seronegative donors as described above. Purified CD8^+ T cells were isolated from PBMC by negative immunoselection using magnetic beads (Dynal, CA), for depletion of CD4^+ T cells. The puity of the isolated CD8+ T cells was determined to be by flow >99% pure. MDM were purified from freshly isolated PBMC as described above. MDM cells were cultured in 6 well plates at 0.5×10^6 cells/ml/well with 10 ng/ml M-CSF (R&D systems, MN) in RPMI 1640/10% Human serum. […] The analysis was performed on a gated CD8^+ T-cells (R1) and further CD8^+ positive cells were analyzed for the CD8^+/Annexin V positive cells (R2 population) in all experimental samples to further analysis the Apoptosis.

The next assay concerns AP-1. As to the kind of experiment: AP-1 dependent luciferase reporter assay in Nef transfected Jurkat cells. The assay is classed as cell-based, human. Particulars: 1 μM; 24 hours. Here is the method:
(§7) Jurkat cells (1×10^6) were seeded onto a 60 mm culture dish (Falcon) and elctrotransfected the cells next day with NF-κB or AP-1 dependent reporter plasmid (10 μg) with pNef (10 μg), and/with or without Cpd4 (1 μM). After 24 hours, transfected cells were lysed with Reporter lysis Buffer (RLB) according to the manufacturer's instructions (Roche, USA). Luciferase activity was measured via LUMAT LB9501 (Berthold, USA). β-Gal levels were used to normalize for transfection efficiency with the chemiluminescent β-Gal reporter gene Assay kit (Roche, USA).
For orientation: In a reporter assay the amount or activity of a reporter protein is the signal.

The subject of the next assay is NF-κB. As to the kind of experiment: NF-κB dependent luciferase reporter assay in Nef transfected Jurkat cells. The assay is classed as cell-based, human. As to conditions: 1 μM; 24 hours. As to the method: as §7
The next assay deals with p38 MAPK. Nature of the assay: Immunoblot of p38 and phospho-p38 in Nef treated Jurkat cells. The assay is classed as cell-based, human. Particulars: 1 μM.
Another assay relates to c-Jun. As to the kind of experiment: Immunoblot of c-Jun in nuclear extracts of Nef treated cells. As to conditions: 1 μM. The assay is classed as cell-based, human. Here is the method: Experimental cells were washed with ice-cold PBS, and the cells were lysed in protein lysis buffer (20 mM Tris (pH7.4), 150 mM NaCl, 1 mM EDTA, 1 mMEGTA, 1% triton, 2.5 mM sodium pyrophosphate, 1 mM […]-glycerolphasphate, 1 mM Na3Vp4, 1 μM/ml leupeptin and 1 mM phenyl methyl-sulfonyl fluoride). After a brief sonication, the lysates were clarified by centrifugation at 10,000 rpm and protein content was measured by the Bradford method (Bio-Rad, CA). Nuclear extracts were prepared using NE-PER nuclear and cytoplasmic extraction reagents (Pierce, USA) and the protein concentration of the nuclear extract was determined by BCA-200 protein assay kit (Pierce, USA) assayed following the manufacturer's instructions.
For Western blot analysis 50 μg of protein per lane was loaded onto acrylamide gels and separated by 12% SDS-PAGE and blotted to PVDF tmnsfer membrane. Immunoblot was carried out using the primary antibody (c-Jun, Phospho-p38 MAP Kinase (Thr180/Tyr182); Cell Signaling, MA, USA) and detected with secondary HRP-conjugated anti-rabbit IgG using Amersham ECL system. Further, the membrane was washed thoroughly using lxWestern re-probe buffer (Geno Tech, MO) and re immunoblotted with anti-actin (Calbiochem, CA) antibody, which recognizes the actin expression in cultured and serves cells as a positive control for gene expression and as an internal standard.
(In general: A western blot detects proteins with antibodies after separation by electrophoresis.)

The next assay addresses p38 MAP Kinase (Homo sapiens, UniProt Q16539). As to conditions: cited from earlier work.

p38 MAP Kinase, sequence (Q16539 whole entry): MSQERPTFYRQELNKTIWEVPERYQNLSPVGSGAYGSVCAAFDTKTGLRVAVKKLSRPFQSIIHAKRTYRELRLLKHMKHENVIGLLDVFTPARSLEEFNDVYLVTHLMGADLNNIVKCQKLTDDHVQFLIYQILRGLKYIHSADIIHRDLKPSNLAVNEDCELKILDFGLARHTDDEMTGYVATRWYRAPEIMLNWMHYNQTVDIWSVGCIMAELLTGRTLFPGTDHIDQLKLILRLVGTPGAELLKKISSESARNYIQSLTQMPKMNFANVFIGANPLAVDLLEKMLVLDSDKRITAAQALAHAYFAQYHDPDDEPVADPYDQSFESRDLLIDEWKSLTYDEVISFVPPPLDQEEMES
Description for p38 MAPK: Experimental cells were washed with ice-cold PBS, and the cells were lysed in protein lysis buffer (20 mM Tris (pH7.4), 150 mM NaCl, 1 mM EDTA, 1 mMEGTA, 1% triton, 2.5 mM sodium pyrophosphate, 1 mM □-glycerolphasphate, 1 mM Na3Vp4, 1 μM/ml leupeptin and 1 mM phenyl methyl-sulfonyl fluoride). After a brief sonication, the lysates were clarified by centrifugation at 10,000 rpm and protein content was measured by the Bradford method (Bio-Rad, CA).
For Western blot analysis 50 μg of protein per lane was loaded onto acrylamide gels and separated by 12% SDS-PAGE and blotted to PVDF tmnsfer membrane. […] Further, the membrane was washed thoroughly using lxWestern re-probe buffer (Geno Tech, MO) and re immunoblotted with anti-actin (Calbiochem, CA) antibody, which recognizes the actin expression in cultured and serves cells as a positive control for gene expression and as an internal standard.

Turning to `OCCC#Cc1nc(-c2ccc(F)cc2)c(-c2ccncc2)n1CCCc1ccccc1` [Cpd4, 4-(4-Fluorophenyl)-2-(4-hydroxybutyn-1-yl)-1-(3-phenylpropyl)-5-(4-pyridyl)imidazole], the “inhibition of apoptosis driven by virus (Annexin V-FITC)” value in assay [1] (1 μM, 89.6 or pNL4-3 virus, 4 days post infection) is recorded as “over 80%”. In addition, the “inhibition of apoptosis induced by 4 subtype divergent primary HIV viral isolates” value in assay [1] (1 μM) is on record as “could inhibit apoptosis”. Moreover, the “inhibition of Caspase 3 activity” value with Caspase 3 is given as about 80%. Moreover, the “inhibition of FasL induction” value in assay [2] and in [3] was “Strong inhibition of FasL induction; also recorded: severely repressed the surface expression of FasL” in each case. Besides, the “inhibition of Nef driven induction of FasL” value in assay [4] was “potent inhibition of Nef driven induction of FasL; also recorded: thoroughly repressed Nef-induced FasL expression; also recorded: highly suppressed; also recorded: could prevent Nef driven FasL activation”. In addition, the “inhibition of Nef mediated FasL expression” value in [5] is listed as “aborted completely; also recorded: completely inhibited”. Besides, the “blocking of bystander CD8+ T cell apoptosis” value in [6] is given as “effectively blocked bystander apoptosis; also recorded: could prevent Nef driven apoptosis of bystander cells”. For the same molecule, the “blocking of Nef activation of AP-1 reporter” value in the assay on AP-1 is “effectively blocked this effect”. Further, in the assay on NF-κB, the “blocking of Nef activation of NF-κB reporter” value is listed as “effectively blocked this effect”. Further, the “total levels of p38” value in the assay on p38 MAPK is on record as “did not alter the total levels of p38”. Also, in the assay on p38 MAPK (15-min exposure), the “Nef induced phosphorylation of p38” value is listed as “no detectable increase in the phosphorylation of p38”. The “Nef mediated phosphorylation / activation of c-Jun” value in the assay with c-Jun is given as “decrease in the phosphorylated status of c-Jun; also recorded: can be blocked”. Also, the “inhibition of p38 MAP Kinase” value on p38 MAP Kinase (at 1 μM concentrations) is given as “inhibit p38 MAP Kinase”. The “anti-p38 activity compared with SB203580” value at p38 MAP Kinase is listed as “higher anti-p38 activity”.

As to `C[S+]([O-])c1ccc(-c2nc(-c3ccc(F)cc3)c(-c3ccncc3)[nH]2)cc1` (stereo not drawn) [SB203580, 4-[5-(4-Fluoro-phenyl)-2-(4-methanesulfinyl-phenyl)-3H-imidazol4-yl]-pyridine, reference compound], the “inhibition of apoptosis induced by 4 subtype divergent primary HIV viral isolates” value in [1] (1 μM) is on record as “could inhibit apoptosis”. The inhibition at 1 µM in assay [1] (Homo sapiens, PBMC, 96 h, read-out: inhibition of apoptosis driven by virus (Annexin V-FITC)) was over 50%. For the same molecule, the “inhibition of Caspase 3 activity” value in the assay on Caspase 3 was about 50%.
